Target: Heat shock protein HSP 90-beta (Homo sapiens, UniProt P08238)
Assay: Binding affinity to human recombinant HSP90

Sequence of Heat shock protein HSP 90-beta (P08238 whole entry): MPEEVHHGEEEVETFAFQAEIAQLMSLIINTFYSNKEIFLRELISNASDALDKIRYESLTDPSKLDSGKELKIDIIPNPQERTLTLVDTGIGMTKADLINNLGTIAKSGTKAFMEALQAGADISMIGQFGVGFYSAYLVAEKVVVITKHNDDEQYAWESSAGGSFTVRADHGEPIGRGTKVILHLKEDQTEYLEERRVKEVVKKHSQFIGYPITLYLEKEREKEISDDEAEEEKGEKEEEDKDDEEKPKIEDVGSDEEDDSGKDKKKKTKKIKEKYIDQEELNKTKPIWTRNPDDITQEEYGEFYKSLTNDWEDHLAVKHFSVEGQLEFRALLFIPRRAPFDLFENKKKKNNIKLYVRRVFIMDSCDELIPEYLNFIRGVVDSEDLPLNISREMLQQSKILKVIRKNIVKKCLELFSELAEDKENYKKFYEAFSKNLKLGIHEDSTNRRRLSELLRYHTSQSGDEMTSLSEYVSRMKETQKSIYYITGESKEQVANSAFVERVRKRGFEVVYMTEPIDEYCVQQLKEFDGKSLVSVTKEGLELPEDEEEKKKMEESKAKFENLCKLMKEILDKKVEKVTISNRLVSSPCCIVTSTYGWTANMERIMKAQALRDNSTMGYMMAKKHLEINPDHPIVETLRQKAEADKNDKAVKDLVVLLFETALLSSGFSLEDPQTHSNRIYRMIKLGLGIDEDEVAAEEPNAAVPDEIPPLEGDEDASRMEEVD

| Kd [µM] | Compound |
| --- | --- |
| > 25 | CO[C@H]1C=CC=C(C)C(=O)Nc2cc(O)c(N=CCN(C)C)c(c2O)C[C@@H](C)C[C@H](OC)[C@H](N)[C@@H](C)/C=C(\C)[C@@H]1OC(N)=O |
| > 100 | CO[C@H]1C[C@H](C)Cc2c(O)c(cc(O)c2N=CCN(C)C)NC(=O)C(C)=CC=C[C@H](OC)[C@@H](OC(N)=O)/C(C)=C/[C@H](C)/C1=N\OCc1ccccc1 |
| > 25 | CO[C@H]1C[C@H](C)Cc2c(O)c(cc(O)c2N=CCN(C)C)NC(=O)C(C)=CC=C[C@H](OC)[C@@H](OC(N)=O)/C(C)=C/[C@H](C)/C1=N\OCC(=O)O [2-(((8S,9S,12S,14S,16R)-9-(carbamoyloxy)-19-(2-(dimethylamino)ethylamino)-8,14-dimethoxy-4,10,12,16-tetramethyl-3,20,22-trioxo-2-azabicyclo[16.3.1]docosa-1(21),4,6,10,18-pentaen-13-ylidene)aminooxy)acetic acid] |
| 2.9 | C=CCO[C@H]1[C@@H](OC)CC(C)=Cc2c(O)c(cc(O)c2N2CCC2)NC(=O)C(C)=CC=C[C@H](OC)[C@@H](OC(N)=O)/C(C)=C/[C@@H]1C [11-O-Allyl-17-(1-azetidinyl)-17-demethoxygeldanamycin] |
| 0.8 | CO[C@H]1[C@@H](OC)C[C@H](C)Cc2c(O)c(cc(O)c2N=CCN(C)C)NC(=O)C(C)=CC=C[C@H](OC)[C@@H](OC(N)=O)/C(C)=C/[C@@H]1C [11-O-Methyl-17-[2-(dimethylamino)ethyl]amino-17-demethoxygeldanamycin] |
| > 25 | CO[C@H]1C[C@H](C)Cc2c(O)c(cc(O)c2N=CCF)NC(=O)C(C)=CC=C[C@H](OC)[C@@H](OC(N)=O)C(C)=C[C@H](C)C1N=O (stereo partly drawn) [(8S,9S,12S,13E,14S,16R)-19-(2-fluoroethylamino)-13-(hydroxyimino)-8,14-dimethoxy-4,10,12,16-tetramethyl-3,20,22-trioxo-2-azabicyclo[16.3.1]docosa-1(21),4,6,10,18-pentaen-9-yl carbamate] |
| > 10 | C=CC=Nc1c(O)cc2c(O)c1C[C@@H](C)C[C@H](OC)C(N=O)[C@@H](C)C=C(C)[C@H](OC(N)=O)[C@@H](OC)C=CC=C(C)C(=O)N2 (stereo partly drawn) [(8S,9S,12S,13E,14S,16R)-19-(allylamino)-13-(hydroxyimino)-8,14-dimethoxy-4,10,12,16-tetramethyl-3,20,22-trioxo-2-azabicyclo[16.3.1]docosa-1(21),4,6,10,18-pentaen-9-yl carbamate] |
| 1 | CO[C@H]1[C@@H](OC)C[C@H](C)Cc2c(O)c(cc(O)c2N=CCN2CCCC2)NC(=O)C(C)=CC=C[C@H](OC)[C@@H](OC(N)=O)/C(C)=C/[C@@H]1C [(8S,9S,12S,13R,14S,16R)-8,13,14-trimethoxy-4,10,12,16-tetramethyl-3,20,22-trioxo-19-(2-(pyrrolidin-1-yl)ethylamino)-2-azabicyclo[16.3.1]docosa-1(21),4,6,10,18-pentaen-9-yl carbamate] |
| > 25 | CNCC=Nc1c(O)cc2c(O)c1C[C@@H](C)C[C@H](OC)[C@H](OC(=O)CN)[C@@H](C)/C=C(\C)[C@H](OC(N)=O)[C@@H](OC)C=CC=C(C)C(=O)N2 [(8S,9S,12S,13R,14S,16R)-9-(carbamoyloxy)-8,14-dimethoxy-4,10,12,16-tetramethyl-19-(2-(methylamino)ethylamino)-3,20,22-trioxo-2-azabicyclo[16.3.1]docosa-1(21),4,6,10,18-pentaen-13-yl 2-aminoacetate] |
| > 25 | CO[C@H]1C=CC=C(C)C(=O)Nc2cc(O)c(N=CCF)c(c2O)C[C@@H](C)C[C@H](OC)[C@H](OC(=O)CN)[C@@H](C)/C=C(\C)[C@@H]1OC(N)=O [(8S,9S,12S,13R,14S,16R)-9-(carbamoyloxy)-19-(2-fluoroethylamino)-8,14-dimethoxy-4,10,12,16-tetramethyl-3,20,22-trioxo-2-azabicyclo[16.3.1]docosa-1(21),4,6,10,18-pentaen-13-yl 2-aminoacetate] |
| > 50 | CO[C@H]1C=CC=C(C)C(=O)Nc2cc(O)c(N=CCN(C)C)c(c2O)C[C@@H](C)C[C@H](OC)[C@H](NCCN(C)C)[C@@H](C)/C=C(\C)[C@@H]1OC(N)=O [(8S,9S,12S,13R,14S,16R)-13,19-bis(2-(dimethylamino)ethylamino)-8,14-dimethoxy-4,10,12,16-tetramethyl-3,20,22-trioxo-2-azabicyclo[16.3.1]docosa-1(21),4,6,10,18-pentaen-9-yl carbamate] |
| 0.4 | CO[C@H]1C=CC=C(C)C(=O)Nc2cc(O)c(N=CCN3CCCC3)c(c2O)C[C@@H](C)C[C@H](OC)[C@H](O)[C@@H](C)/C=C(\C)[C@@H]1OC(N)=O [(8S,9S,12S,13R,14S,16R)-13-hydroxy-8,14-dimethoxy-4,10,12,16-tetramethyl-3,20,22-trioxo-19-(2-(pyrrolidin-1-yl)ethylamino)-2-azabicyclo[16.3.1]docosa-1(21),4,6,10,18-pentaen-9-yl carbamate] |
| 0.8 | CO[C@H]1C=CC=C(C)C(=O)Nc2cc(O)c(N=CCc3cnc[nH]3)c(c2O)C[C@@H](C)C[C@H](OC)[C@H](O)[C@@H](C)/C=C(\C)[C@@H]1OC(N)=O [(8S,9S,12S,13R,14S,16R)-19-(2-(1H-imidazol-4-yl)ethylamino)-13-hydroxy-8,14-dimethoxy-4,10,12,16-tetramethyl-3,20,22-trioxo-2-azabicyclo[16.3.1]docosa-1(21),4,6,10,18-pentaen-9-yl carbamate] |
| 1 | CO[C@H]1[C@@H](OC)C[C@H](C)Cc2c(O)c(cc(O)c2N=CCN2CCC2)NC(=O)C(C)=CC=C[C@H](OC)[C@@H](OC(N)=O)/C(C)=C/[C@@H]1C [(8S,9S,12S,13R,14S,16R)-19-(2-(azetidin-1-yl)ethylamino)-8,13,14-trimethoxy-4,10,12,16-tetramethyl-3,20,22-trioxo-2-azabicyclo[16.3.1]docosa-1(21),4,6,10,18-pentaen-9-yl carbamate] |
| 0.4 | CO[C@H]1C=CC=C(C)C(=O)Nc2cc(O)c(N=CCN3CCC3)c(c2O)C[C@@H](C)C[C@H](OC)[C@H](O)[C@@H](C)/C=C(\C)[C@@H]1OC(N)=O [(8S,9S,12S,13R,14S,16R)-19-(2-(azetidin-1-yl)ethylamino)-13-hydroxy-8,14-dimethoxy-4,10,12,16-tetramethyl-3,20,22-trioxo-2-azabicyclo[16.3.1]docosa-1(21),4,6,10,18-pentaen-9-yl carbamate] |
| 4 | CO[C@H]1C=CC=C(C)C(=O)Nc2cc(O)c(N=CCN(C)C)c(c2O)C[C@@H](C)C[C@H](OC)[C@H](NCC(F)(F)F)[C@@H](C)/C=C(\C)[C@@H]1OC(N)=O [(8S,9S,12S,13R,14S,16R)-19-(2-(dimethylamino)ethylamino)-8,14-dimethoxy-4,10,12,16-tetramethyl-3,20,22-trioxo-13-(2,2,2-trifluoroethylamino)-2-azabicyclo[16.3.1]docosa-1(21),4,6,10,18-pentaen-9-yl carbamate] |
| > 10 | CO[C@H]1C=CC=C(C)C(=O)Nc2cc(O)c(N=CCN(C)C)c(c2O)C[C@@H](C)C[C@H](OC)[C@H](NCCC(F)(F)F)[C@@H](C)/C=C(\C)[C@@H]1OC(N)=O [(8S,9S,12S,13R,14S,16R)-19-(2-(dimethylamino)ethylamino)-8,14-dimethoxy-4,10,12,16-tetramethyl-3,20,22-trioxo-13-(3,3,3-trifluoropropylamino)-2-azabicyclo[16.3.1]docosa-1(21),4,6,10,18-pentaen-9-yl carbamate] |
| > 25 | C=CC=Nc1c(O)cc2c(O)c1C[C@@H](C)C[C@H](OC)[C@H](OC(=O)CN)[C@@H](C)/C=C(\C)[C@H](OC(N)=O)[C@@H](OC)C=CC=C(C)C(=O)N2 [(8S,9S,12S,13R,14S,16R)-19-(allylamino)-9-(carbamoyloxy)-8,14-dimethoxy-4,10,12,16-tetramethyl-3,20,22-trioxo-2-azabicyclo[16.3.1]docosa-1(21),4,6,10,18-pentaen-13-yl 2-aminoacetate] |
| > 25 | C=CC=Nc1c(O)cc2c(O)c1C[C@@H](C)C[C@H](OC)[C@H](OC(=O)CCN)[C@@H](C)/C=C(\C)[C@H](OC(N)=O)[C@@H](OC)C=CC=C(C)C(=O)N2 [(8S,9S,12S,13R,14S,16R)-19-(allylamino)-9-(carbamoyloxy)-8,14-dimethoxy-4,10,12,16-tetramethyl-3,20,22-trioxo-2-azabicyclo[16.3.1]docosa-1(21),4,6,10,18-pentaen-13-yl 3-aminopropanoate] |
| 4 | CO[C@H]1[C@@H](OC)CC(C)=Cc2c(O)c(cc(O)c2N2CCC2)NC(=O)C(C)=CC=C[C@H](OC)[C@@H](OC(N)=O)/C(C)=C/[C@@H]1C [(8S,9S,12S,13R,14S,16R)-19-(azetidin-1-yl)-8,13,14-trimethoxy-4,10,12,16-tetramethyl-3,20,22-trioxo-2-azabicyclo[16.3.1]docosa-1(21),4,6,10,18-pentaen-9-yl carbamate] |
| > 100 | CO[C@H]1C[C@H](C)Cc2c(O)c(cc(O)c2N=CCN(C)C)NC(=O)C(C)=CC=C[C@H](OC)[C@@H](OC(N)=O)/C(C)=C/[C@H](C)/C1=N\OCCN(C)C [(8S,9S,12S,14S,16R)-13-(2-(dimethylamino)ethoxyimino)-19-(2-(dimethylamino)ethylamino)-8,14-dimethoxy-4,10,12,16-tetramethyl-3,20,22-trioxo-2-azabicyclo[16.3.1]docosa-1(21),4,6,10,18-pentaen-9-yl carbamate] |
| > 100 | C=CCO/N=C1/[C@@H](OC)C[C@H](C)Cc2c(O)c(cc(O)c2N=CCN(C)C)NC(=O)C(C)=CC=C[C@H](OC)[C@@H](OC(N)=O)/C(C)=C/[C@@H]1C [(8S,9S,12S,14S,16R)-13-(allyloxyimino)-19-(2-(dimethylamino)ethylamino)-8,14-dimethoxy-4,10,12,16-tetramethyl-3,20,22-trioxo-2-azabicyclo[16.3.1]docosa-1(21),4,6,10,18-pentaen-9-yl carbamate] |

| Compound | Kd [µM] |
| --- | --- |
| CO[C@H]1C=CC=C(C)C(=O)Nc2cc(O)c(N=CCN(C)C)c(c2O)C[C@@H](C)C[C@H](OC)[C@H](NCCF)[C@@H](C)/C=C(\C)[C@@H]1OC(N)=O | > 50 |
| CO[C@H]1C=CC=C(C)C(=O)Nc2cc(O)c(N=CCN(C)C)c(c2O)C[C@@H](C)C[C@H](OC)[C@H](NCC(F)F)[C@@H](C)/C=C(\C)[C@@H]1OC(N)=O [(8S,9S,12S,13R,14S,16R)-13-(2,2-difluoroethylamino)-19-(2-(dimethylamino)ethylamino)-8,14-dimethoxy-4,10,12,16-tetramethyl-3,20,22-trioxo-2-azabicyclo[16.3.1]docosa-1(21),4,6,10,18-pentaen-9-yl carbamate] | 2.9 |

From BindingDB's records for doi:10.1021/jm900098v (Kosan Biosciences, 2009)
